Measurements: patent publication US5880121A, “4,5-dihydronaphth (1,2-c) isoxazoles and derivatives thereof” (Hoechst Marion Roussel Inc., priority 1996, dated 1999)

Key:
5-HT3 Receptor = target: T1, 5-HT3 Receptor (Rattus norvegicus, UniProt P35563); experiment: ^3 H-GR 65630 Binding to Rat Entorhinal Cortex Membranes (affinity for 5-HT3 receptor); set-up: species or system Male Wistar rat; details: 0.4 nM [^3 H]-GR65630, pH 7.4, 30 minutes at 37° C., read-out: IC50, Affinity for 5-HT3 Receptor-Displacement of ^3 H-GR 65630
T1 construct: Male Wistar rats (15-200 g) were decapitated, the entorhinal cortex removed, weighed and homogenized; from tissue; host or cells: entorhinal cortex membranes of male Wistar rats
T1 sequence (P35563 24-483): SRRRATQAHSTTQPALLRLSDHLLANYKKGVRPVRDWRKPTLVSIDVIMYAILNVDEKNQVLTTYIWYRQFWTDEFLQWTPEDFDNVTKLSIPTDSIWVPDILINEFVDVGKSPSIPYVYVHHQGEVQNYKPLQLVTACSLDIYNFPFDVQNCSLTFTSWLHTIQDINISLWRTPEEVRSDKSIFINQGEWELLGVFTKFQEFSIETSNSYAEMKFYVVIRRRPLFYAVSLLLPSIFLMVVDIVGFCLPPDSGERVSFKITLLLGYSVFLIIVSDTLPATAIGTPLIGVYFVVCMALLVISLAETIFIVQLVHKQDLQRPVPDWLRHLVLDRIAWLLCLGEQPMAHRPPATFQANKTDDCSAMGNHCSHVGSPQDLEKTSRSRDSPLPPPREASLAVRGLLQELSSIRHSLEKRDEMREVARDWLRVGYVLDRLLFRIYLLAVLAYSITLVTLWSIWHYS
Experimental: In accordance with the above-discussed assay, a 0.05M of Krebs-Hepes buffer, pH 7.4 was prepared as follows:
q.s. to 1 liter with distilled H2 O, bring pH up to 7.4 (at 4° C.) with 5N NaOH
[^3 H]-GR65630 (87.0 Ci/mmol) was obtained from New England Nuclear.
GR38032F was obtained from Research Biochemical Inc. GR38032F was made up to a concentration of 500 μM in Krebs-Hepes buffer. 50 μl of […] were added to each of 3 tubes for determination of nonspecific binding (yields a final concentration of 100 μM in the 250 μl assay).
For most assays, a 50 μM stock solution was prepared in a suitable solvent and serially diluted with Krebs-Hepes buffer such that when 50 μl of drug is combined with the total 250 μl assay, a final concentration from 10^-5 to 10^-8 M was attained.
During tissue preparation, Male Wistar rats ([…]) were decapitated, the entorhinal cortex removed, weighed and homogenized in 10 volumes of ice cold 0.05M Krebs-Hepes buffer, pH 7.4. The homogenate is centrifuged at 48,000 g for 15 minutes at 4° C. The resulting pellet was rehomogenized in fresh Krebs-Hepes buffer and recentrifuged at 48,000 g for 15 minutes at 4° C. The final pellet was resuspended in the original volume of ice-cold Krebs-Hepes buffer. This yielded a final tissue concentration of 1.2 to 1.6 mg/ml with the addition of 100 μl to the assay.
In conducting the assay, the following volumes were utilized:
Sample tubes were kept on ice for additions, then vortexed and incubated with continuous shaking for 30 minutes at 37° C. At the end of the incubation period, the incubate is diluted with 5 ml of ice-cold Krebs-Hepes buffer and immediately vacuum filtered through Whatman GF/B filters, followed by two 5 ml washes with ice-cold Krebes-Hepes buffer. The filters are dried and counted in 10 ml of liquid scintillation cocktail. […] IC50 values were derived from computer-derived log-probit analysis.

5-HT3 = experiment: 5 HT3 antagonist effects in the Bezold-Jarisch assay (reflex bradycardia, anesthetized Long-Evans rat); format: in vivo; details: ip, mean ± SEM, 2-3 rats/dose
Description: Measurement of 5 HT3 Antagonist Effects in the Bezold-Jarisch Assay
This assay evaluates the effect of these compounds as 5-HT3 antagonists. They were examined in this assay on the coronary chemoreflex (Bezold-Jarisch) initiated by […] in vivo and characterized by leading inhibition of sympathetic outflow and increased activity of the cardiac vagus, leading to profound bradycardia and hypotension. The values obtained allow for continuous monitoring of arterial pressure and heart rate responses by these compounds over an extended period of time to determine their effecicy for 5 HT3 antagonism.
The catheters were prepared from Tygon tubing (45 cm length, […], ID) bonded to Teflon tubing (0.38 mm, ID). The mechanical bonding was achieved by insertion of the Teflon tubing (5 mm) into the dilated (ethylene dichloride, 3-4 min.) tip of the Tygon tubing. The junction was then sealed with vinyl glue, the catheters were soaked in cold sterilization solution (Amerse instrument germicide) and flushed thoroughly with saline prior to implantation.
Long Evans rats were anesthetized with sodium pentobarbital (50 mg/kg, ip). […] The catheters were then sutured to the underlying muscle and the free ends were passed subcutaneously and exteriorized through an incision on the top of the skull. The catheters were then secured to the skin with sutures, nitrofurazone powder was dusted over the area of the incision and the incision was closed using 3-O silk sutures. The catheters were flushed with saline and sealed with metal obturators. Patentcy of the two catheters was maintained by daily flushing with hepranized saline (0.2 ml of 100 U/ml). The rats were given 48 hours recovery prior to obtaining cardiovascular data.
In the anesthetized rat model the catheters were not exteriorized, data was collected acutely under the influence of general anesthesia.
The baseline data Arterial Blood Pressure (mm Hg, systolic/diastolic) and Heart Rate (beats/min) were recorded and the rats were injected with 5-HT (3-7.5 ug/kg, iv). The individual response to the 5-HT intervention was determined and the compound was then administered singlely or in an ascending dose range. The rats were challenged with 5-HT again at intervals postdosing and the peak response was recorded.

IC50 (5-HT3 Receptor) | Compound | % Inhibition of Bezold-Jarisch Reflex (5-HT3; 0.03 mg/kg) | % Inhibition of Bezold-Jarisch Reflex (5-HT3; 0.05 mg/kg) | % Inhibition of Bezold-Jarisch Reflex (5-HT3; 0.10 mg/kg) | % Inhibition of Bezold-Jarisch Reflex (5-HT3; 3.0 mg/kg) | % Inhibition of Bezold-Jarisch Reflex (5-HT3; 10.0 mg/kg) | % Inhibition of Bezold-Jarisch Reflex (5-HT3; 1.0 mg/kg)
83 nM | c1ccc2c(c1)CCc1c-2noc1N1CCCNCC1 [Ex. 4, 3-(1-Homopiperazinyl)-4,5-dihydronaphth[1,2-c]isoxazole] | 58.6 ± 16.4% | 83.3 ± 8.2% | 93.0 ± 1.0% |  |  | 
 | Cc1nccn1CC1CCc2c(c3ccccc3n2C)C1=O (stereo not shown) [Ondansetron, reference compound] |  |  |  | 57.3 ± 9.7% | 94.6 ± 2.7% | 
56 nM | c1ccc2c(c1)CCc1c-2noc1N1CCNCC1 [Ex. 5, 3-(1-Piperazinyl)-4,5-dihydronaphth[1,2-c]isoxazole] |  |  |  | 89.3 ± 2.9% |  | 55.6 ± 9.7%
868 nM | OCCN1CCN(c2onc3c2CCc2ccccc2-3)CC1 [Ex. 3, 3-(4-(2-Hydroxyethyl)-1-piperazinyl)-4,5-dihydronaphth[1,2-c]isoxazole] |  |  |  |  |  | 
